System: patients with advanced solid tumors
Assay: Treatment-related adverse events (CTCAE v5.0), phase I dose escalation
Assay type: in vivo
From the text: This study was a single‐arm, dose‐escalation phase I trial conducted in Sun Yat‐sen University Cancer Center in China. This study assessed CVL218 in patients with histologically or cytologically confirmed advanced solid tumors who were in PD after standard therapeutic regimens or lacked standard treatment options. Inclusion criteria included: age 18–75 years; with at least one measurable and evaluable target lesion per Response Evaluation Criteria in Solid Tumors 1.1 (RECIST 1.1); ECOG performance status of 0 or 1; adequate hematological, renal, cardiac, and hepatic functions and a life expectancy ≥12 weeks. Key exclusion criteria included prior usage of PARP inhibitors; allergic to the research drug or its components; with active, unstable systemic diseases or active, uncontrolled infection; a history of other malignancies within 5 years, and pregnant or lactating women.
CVL218 was administered orally, and this dose‐escalation trial included nine dose levels: 100 mg QD (50 mg BID), 200 mg QD (100 mg BID), 400 mg QD (200 mg BID), 700 mg QD (350 mg BID), 1000 mg QD (500 mg BID), 1200 mg QD (600 mg BID), 1400 mg QD (700 mg BID), 1700 mg QD (850 mg BID), and 2000 mg QD (1000 mg BID). Patients enrolled in the study received a single oral dose on the first day, followed by continuous multiple dosing (twice a day taking 12 h apart) after 72 h, with the treatment cycle lasting 4 weeks. The period during which patients received a single dose is designated as cycle 0 (C0), lasting 72 h. After this period, patients begin multiple dosing, referred to as cycle 1 (C1). An initial accelerated titration design was employed for the three lowest dose groups, and the “3+3” design was applied starting with the 300 mg BID cohort.
The primary objectives were to assess safety and tolerability as well as to determine the MTD, DLT, and dose recommended for further study. DLT was defined as any of the following events occurring during cycle 0 (including 72 h wash‐out period after a single dose) and cycle 1 per Common Terminology Criteria for Adverse Events (CTCAE) version 5.0: grade 4 anemia; grade 4 neutropenia; grade 3 neutropenia with fever ≥38.5°C; grade 4 thrombocytopenia; grade 3 thrombocytopenia associated with bleeding; grade ≥2 neurotoxicity; any other grade ≥3 nonhematological toxicities (excluding alopecia). The secondary objectives were to assess the PK and preliminary efficacy of CVL218.
Subjects who received at least one dose of CVL218 with postadministration safety records were included in safety analysis set. Subjects who received at least one dose of CVL218 with at least one evaluable PK parameter were included in PK analysis set. Per‐protocol set were used for efficacy analysis. Descriptive statistics of safety were presented per CTCAE v5.0. The PK parameters T max and T 1/2 were shown as the median (min, max) and mean ± SD, respectively. A two‐sided p < 0.05 was considered to indicate statistical significance. Statistical analysis was performed by using GraphPad prism 8.0.2 and R‐4.3.3.

CNCc1ccc(-c2cc3cc(F)cc(C(N)=O)c3o2)cc1.Cl [CVL218] was tested, and the Infusion site pain (50 mg BID, ALL) was 0 n (%), the WBC count increased (50 mg BID, ALL) was 0 n (%) and the ALT increased (50 mg BID, ≥G3) was 0 n (%). The AST increased (50 mg BID, ≥G3) was 0 n (%), the Abdominal distension (50 mg BID, ≥G3) was 0 n (%) and the Abdominal pain (50 mg BID, ≥G3) was 0 n (%). For the same compound, the Abdominal pain upper (50 mg BID, ≥G3) was 0 n (%), the Amylase increased (50 mg BID, ≥G3) was 0 n (%) and the Anemia (50 mg BID, ≥G3) was 0 n (%). The “Any AE related to study drug” value (50 mg BID, ≥G3) was 0 n (%), the Asthenia (50 mg BID, ≥G3) was 0 n (%) and the Blood creatinine increased (50 mg BID, ≥G3) was 0 n (%). For the same compound, the Blood system disorders (50 mg BID, ≥G3) was 0 n (%), the Blood triglycerides increased (50 mg BID, ≥G3) was 0 n (%) and the Blood urea increased (50 mg BID, ≥G3) was 0 n (%). The Cardiac disorders (50 mg BID, ≥G3) was 0 n (%), the Chest discomfort (50 mg BID, ≥G3) was 0 n (%) and the Constipation (50 mg BID, ≥G3) was 0 n (%). The Decreased appetite (50 mg BID, ≥G3) was 0 n (%), the Diarrhea (50 mg BID, ≥G3) was 0 n (%) and the Dizziness (50 mg BID, ≥G3) was 0 n (%). For the same compound, the Erectile dysfunction (50 mg BID, ≥G3) was 0 n (%), the Gastrointestinal disorders (50 mg BID, ≥G3) was 0 n (%) and the General disorders (50 mg BID, ≥G3) was 0 n (%). The Gingival bleeding (50 mg BID, ≥G3) was 0 n (%), the Granulocyte count increased (50 mg BID, ≥G3) was 0 n (%) and the Headache (50 mg BID, ≥G3) was 0 n (%). For the same compound, the Hypoalbuminemia (50 mg BID, ≥G3) was 0 n (%), the Infusion site pain (50 mg BID, ≥G3) was 0 n (%) and the Laboratory test disorders (50 mg BID, ≥G3) was 0 n (%). The Limb discomfort (50 mg BID, ≥G3) was 0 n (%), the Lipase increased (50 mg BID, ≥G3) was 0 n (%) and the Metabolic disorders (50 mg BID, ≥G3) was 0 n (%). For the same compound, the Musculoskeletal discomfort (50 mg BID, ≥G3) was 0 n (%), the Musculoskeletal disorders (50 mg BID, ≥G3) was 0 n (%) and the Nausea (50 mg BID, ≥G3) was 0 n (%). The Nervous system disorders (50 mg BID, ≥G3) was 0 n (%), the Neutrophil count decreased (50 mg BID, ≥G3) was 0 n (%) and the Neutrophil count increased (50 mg BID, ≥G3) was 0 n (%). For the same compound, the Palpitations (50 mg BID, ≥G3) was 0 n (%), the Protein urine present (50 mg BID, ≥G3) was 0 n (%) and the Proteinuria (50 mg BID, ≥G3) was 0 n (%). For the same compound, the Rash (50 mg BID, ≥G3) was 0 n (%), the “Renal & urinary disorders” value (50 mg BID, ≥G3) was 0 n (%) and the Renal failure (50 mg BID, ≥G3) was 0 n (%). For the same compound, the Reproductive disorders (50 mg BID, ≥G3) was 0 n (%), the Skin disorders (50 mg BID, ≥G3) was 0 n (%) and the “Urinary occult blood positive” value (50 mg BID, ≥G3) was 0 n (%). The Vomiting (50 mg BID, ≥G3) was 0 n (%), the WBC count decreased (50 mg BID, ≥G3) was 0 n (%) and the WBC count increased (50 mg BID, ≥G3) was 0 n (%). For the same compound, the Infusion site pain (100 mg BID, ALL) was 0 n (%), the WBC count increased (100 mg BID, ALL) was 0 n (%) and the ALT increased (100 mg BID, ≥G3) was 0 n (%). For the same compound, the AST increased (100 mg BID, ≥G3) was 0 n (%), the Abdominal distension (100 mg BID, ≥G3) was 0 n (%) and the Abdominal pain (100 mg BID, ≥G3) was 0 n (%). For the same compound, the Abdominal pain upper (100 mg BID, ≥G3) was 0 n (%), the Amylase increased (100 mg BID, ≥G3) was 0 n (%) and the Anemia (100 mg BID, ≥G3) was 0 n (%). For the same compound, the “Any AE related to study drug” value (100 mg BID, ≥G3) was 0 n (%), the Asthenia (100 mg BID, ≥G3) was 0 n (%) and the Blood creatinine increased (100 mg BID, ≥G3) was 0 n (%). For the same compound, the Blood system disorders (100 mg BID, ≥G3) was 0 n (%), the Blood triglycerides increased (100 mg BID, ≥G3) was 0 n (%) and the Blood urea increased (100 mg BID, ≥G3) was 0 n (%). For the same compound, the Cardiac disorders (100 mg BID, ≥G3) was 0 n (%), the Chest discomfort (100 mg BID, ≥G3) was 0 n (%) and the Constipation (100 mg BID, ≥G3) was 0 n (%). The Decreased appetite (100 mg BID, ≥G3) was 0 n (%), the Diarrhea (100 mg BID, ≥G3) was 0 n (%) and the Dizziness (100 mg BID, ≥G3) was 0 n (%). The Erectile dysfunction (100 mg BID, ≥G3) was 0 n (%), the Gastrointestinal disorders (100 mg BID, ≥G3) was 0 n (%) and the General disorders (100 mg BID, ≥G3) was 0 n (%). For the same compound, the Gingival bleeding (100 mg BID, ≥G3) was 0 n (%), the Granulocyte count increased (100 mg BID, ≥G3) was 0 n (%) and the Headache (100 mg BID, ≥G3) was 0 n (%). The Hypoalbuminemia (100 mg BID, ≥G3) was 0 n (%), the Infusion site pain (100 mg BID, ≥G3) was 0 n (%) and the Laboratory test disorders (100 mg BID, ≥G3) was 0 n (%). For the same compound, the Limb discomfort (100 mg BID, ≥G3) was 0 n (%), the Lipase increased (100 mg BID, ≥G3) was 0 n (%) and the Metabolic disorders (100 mg BID, ≥G3) was 0 n (%). The Musculoskeletal discomfort (100 mg BID, ≥G3) was 0 n (%), the Musculoskeletal disorders (100 mg BID, ≥G3) was 0 n (%) and the Nausea (100 mg BID, ≥G3) was 0 n (%). The Nervous system disorders (100 mg BID, ≥G3) was 0 n (%), the Neutrophil count decreased (100 mg BID, ≥G3) was 0 n (%) and the Neutrophil count increased (100 mg BID, ≥G3) was 0 n (%). The Palpitations (100 mg BID, ≥G3) was 0 n (%), the Protein urine present (100 mg BID, ≥G3) was 0 n (%) and the Proteinuria (100 mg BID, ≥G3) was 0 n (%). The Rash (100 mg BID, ≥G3) was 0 n (%), the “Renal & urinary disorders” value (100 mg BID, ≥G3) was 0 n (%) and the Renal failure (100 mg BID, ≥G3) was 0 n (%). The Reproductive disorders (100 mg BID, ≥G3) was 0 n (%), the Skin disorders (100 mg BID, ≥G3) was 0 n (%) and the “Urinary occult blood positive” value (100 mg BID, ≥G3) was 0 n (%). The Vomiting (100 mg BID, ≥G3) was 0 n (%), the WBC count decreased (100 mg BID, ≥G3) was 0 n (%) and the WBC count increased (100 mg BID, ≥G3) was 0 n (%). For the same compound, the Infusion site pain (200 mg BID, ALL) was 1 (100) n (%), the WBC count increased (200 mg BID, ALL) was 0 n (%) and the ALT increased (200 mg BID, ≥G3) was 0 n (%). The AST increased (200 mg BID, ≥G3) was 0 n (%), the Abdominal distension (200 mg BID, ≥G3) was 0 n (%) and the Abdominal pain (200 mg BID, ≥G3) was 0 n (%). For the same compound, the Abdominal pain upper (200 mg BID, ≥G3) was 0 n (%), the Amylase increased (200 mg BID, ≥G3) was 0 n (%) and the Anemia (200 mg BID, ≥G3) was 0 n (%). For the same compound, the “Any AE related to study drug” value (200 mg BID, ≥G3) was 0 n (%), the Asthenia (200 mg BID, ≥G3) was 0 n (%) and the Blood creatinine increased (200 mg BID, ≥G3) was 0 n (%). For the same compound, the Blood system disorders (200 mg BID, ≥G3) was 0 n (%), the Blood triglycerides increased (200 mg BID, ≥G3) was 0 n (%) and the Blood urea increased (200 mg BID, ≥G3) was 0 n (%). For the same compound, the Cardiac disorders (200 mg BID, ≥G3) was 0 n (%), the Chest discomfort (200 mg BID, ≥G3) was 0 n (%) and the Constipation (200 mg BID, ≥G3) was 0 n (%). For the same compound, the Decreased appetite (200 mg BID, ≥G3) was 0 n (%), the Diarrhea (200 mg BID, ≥G3) was 0 n (%) and the Dizziness (200 mg BID, ≥G3) was 0 n (%). For the same compound, the Erectile dysfunction (200 mg BID, ≥G3) was 0 n (%), the Gastrointestinal disorders (200 mg BID, ≥G3) was 0 n (%) and the General disorders (200 mg BID, ≥G3) was 0 n (%). For the same compound, the Gingival bleeding (200 mg BID, ≥G3) was 0 n (%) and the Granulocyte count increased (200 mg BID, ≥G3) was 0 n (%).

Source: article PMC12238723, “Phase I Clinical Trial of CVL218, a Novel PARP1/2 Inhibitor, in Patients with Advanced Solid Tumors” (MedComm, 2025)
